These results are taken from PMC5912973 (ChemMedChem, 2018).

One series addresses HIV-1 protease (Human immunodeficiency virus type 1 group M subtype B, UniProt P04585). The experiment in a line: HIV-1 protease inhibitory activity, assay protocol of Toth and Marshall. Format: biochemical. Conditions: as printed in text or footnote.
A further series deals with HIVATV-5 μM. Nature of the series: microbe, parasite or virus in culture. Format: cell-based, HIV-1.
The test system of the next series is wild-type HIV-1NL4-3. Nature of the series: Antiviral p24 assay in MT-4 cells, wild-type HIV-1NL4-3. The series is classed as cell-based.
The next series has as its system HIVDRV^RP51. The experiment in a line: microbe, parasite or virus in culture. Format: cell-based, HIV-1. Conditions: for fold change of IC50 relative to HIV-1NL4-3: HIVDRV^RP51 vs wild type.
A further series concerns HIVIDV-5 μM. Nature of the series: microbe, parasite or virus in culture. Format: cell-based, HIV-1.
In another series the test system is HIVLPV-5 μM. Nature of the series: microbe, parasite or virus in culture. The series is classed as cell-based, HIV-1.
A further series concerns HIVNFV-5 μM. Nature of the series: microbe, parasite or virus in culture. The series is classed as cell-based, HIV-1.
The test system of another series is HIVAPV-5 μM. Nature of the series: microbe, parasite or virus in culture. The series is classed as cell-based, HIV-1.
For a further series, the system named is HIVLAI. The experiment in a line: Antiviral activity in MT-2 human T-lymphoid cells exposed to HIVLAI. The series is classed as cell-based, HIV-1. The note with it: MT-2/HIVLAI.
In another series the test system is HIVDRV^RP30. Nature of the series: microbe, parasite or virus in culture. Format: cell-based, HIV-1. Conditions: for fold change of IC50 relative to HIV-1NL4-3: HIVDRV^RP30 vs wild type.
Another series has as its system HIVDRV^RP20. The experiment in a line: microbe, parasite or virus in culture. Format: cell-based, HIV-1. The note with it: for fold change of IC50 relative to HIV-1NL4-3: HIVDRV^RP20 vs wild type.
A further series has as its system HIVTPV-15 μM. The experiment in a line: microbe, parasite or virus in culture. The series is classed as cell-based, HIV-1.
For a further series, the system named is HIVSQV-5 μM. The experiment in a line: microbe, parasite or virus in culture. The series is classed as cell-based, HIV-1.
Series [1] concerns the target dimerization of HIV-1 protease subunits (Human immunodeficiency virus type 1 group M subtype B, UniProt P12497). The experiment in a line: FRET-based HIV-1 expression assay of protease dimerization in COS-7 cells. Format: cell-based.
The conditions of series [2]: brain concentration 32.6 nM at 360 min; ref [23]; cited from earlier work.
[3] abbreviates: read-out: Mean IC50 ± SD, MT-4 cells, HIVATV-5 μM, p24 assay.
Setting [4] is: read-out: IC50 ± SD, MT-4 cells, HIVNL4-3 WT, p24 assay.
The mark [5] stands for this setting: read-out: IC50 ± SD, MT-4 cells, HIVDRV^RP51, p24 assay.
Setting [6] is: read-out: IC50 ± SD, MT-4 cells, HIVDRV^RP30, p24 assay.
The mark [7] stands for this setting: read-out: IC50 ± SD, MT-4 cells, HIVDRV^RP20, p24 assay.
Where [8] appears, read: Human immunodeficiency virus 1, MT4, read-out: Mean IC50 ± SD.
The mark [9] stands for this setting: Human immunodeficiency virus 1, MT4, read-out: IC50 ± SD.

A word on the Ki: it is the equilibrium dissociation constant of an inhibitor or competing ligand from its target. Read a high Ki as lower affinity. By IC50 is commonly meant the concentration that inhibits the measured activity by half.

Each structure is given as a SMILES string. Where two headings read alike, the source gives them in different places.

On to `CC(C)CN(C[C@@H](O)[C@H](Cc1cc(F)cc(F)c1)NC(=O)O[C@H]1C2CO[C@H]3OC[C@@H]1C3C2)S(=O)(=O)c1ccc2nc(NC3CC3)sc2c1` (stereo partly drawn) [Inhibitor 5, (3S,7 aS,8S)-Hexahydro-4H-3,5-methanofuro[2,3-b]pyran-8-yl((2S,3R)-4-((2-(cyclopropylamino)-N-isobutylbenzo[d]thiazole)-6-sulfonamido)-1-(3,5-difluorophenyl)-3-hydroxybutan-2-yl)carbamate], for which the Ki at HIV-1 protease came out at 0.014 nM. In addition, the “fold-change of IC50 vs HIVNL4-3 WT” value came out at 1.3 fold in the series with HIVATV-5 μM (HIVATV-5 μM); 0.02 fold in the series on HIVIDV-5 μM (HIVIDV-5 μM); 0.0002 fold in the series with HIVLPV-5 μM (HIVLPV-5 μM); 0.04 fold with HIVNFV-5 μM (HIVNFV-5 μM); 0.0006 fold in the series on HIVAPV-5 μM (HIVAPV-5 μM); 0.02 fold in the series on HIVTPV-15 μM (HIVTPV-15 μM). In addition, in the series with HIVSQV-5 μM (HIVSQV-5 μM), the “fold-change of IC50 vs HIVNL4-3 WT” value is given as 0.01 fold. For the same compound, the IC50 in the series with HIVATV-5 μM (setting [3]) is 0.02 ± 0.01 nM; in the series with wild-type HIV-1NL4-3 (setting [4]) it was 0.016 ± 0.017 nM; with HIVDRV^RP51 (setting [5]), 2.8 ± 0.2 nM; with HIVDRV^RP30 (setting [6]) it was 0.015 ± 0.015 nM; with HIVDRV^RP20 (setting [7]) it was 0.0016 ± 0.002 nM. Besides, the “fold change of IC50 relative to HIV-1NL4-3” value with HIVDRV^RP51 is reported as 175 fold; with HIVDRV^RP30, 1 fold; with HIVDRV^RP20, 0.1 fold. Further, in the series on HIVLAI (vs DRV), the “fold potency enhancement of antiviral IC50 over DRV” value was “more than 150 fold”. Besides, the “fold improvement of antiviral IC50 over compound 4” value in the series on HIVLAI (vs compound 4) came to 100 fold. The “fold more potent than inhibitor 3 (antiviral)” value with HIVLAI (vs inhibitor 3) is given as “over 15 fold”. For the same compound, the “concentration at which dimerization of protease subunits is blocked” value in series [1] is listed as 0.1 nM. Further, the “brain drug level relative to its IC50 value” in series [2] is on record as ~1880 fold.

Regarding `CC(C)CN(C[C@@H](O)[C@H](Cc1ccccc1)NC(=O)O[C@H]1CO[C@H]2OCC[C@H]21)S(=O)(=O)c1ccc(N)cc1` [DRV, darunavir], the IC50 in the series on HIVATV-5 μM (setting [8]) was 26 ± 1 nM; with wild-type HIV-1NL4-3 (setting [9]), 3.7 ± 0.7 nM; in the series with HIVDRV^RP51 (setting [9]), 4670 ± 1260 nM; in the series on HIVIDV-5 μM (setting [8]), 42 ± 1 nM; in the series on HIVLPV-5 μM (setting [8]) it was 275 ± 64 nM; in the series with HIVNFV-5 μM (setting [8]) it was 6.1 ± 0.8 nM. In addition, the IC50 in the series on HIVAPV-5 μM (setting [8]) turned out to be 43 ± 22 nM; in the series on HIVDRV^RP30 (setting [9]), 134 ± 43 nM; with HIVDRV^RP20 (setting [9]), 60 ± 6 nM; with HIVTPV-15 μM (setting [8]), 41 ± 3 nM; in the series on HIVSQV-5 μM (setting [8]), 22 ± 6 nM.

`CC(C)CN(C[C@@H](O)[C@H](Cc1cc(F)cc(F)c1)NC(=O)O[C@H]1C2CO[C@H]3OC[C@@H]1C3C2)S(=O)(=O)c1ccc(N)cc1` (stereo partly drawn) [Inhibitor 4, (3S,7 aS,8S)-Hexahydro-4H-3,5-methanofuro[2,3-b]pyran-8-yl((2S,3R)-4-((4-amino-N-isobutylphenyl)sulfonamido)-1-(3,5-difluorophenyl)-3-hydroxybutan-2-yl)carbamate]: the Ki at HIV-1 protease was found to be 0.004 nM. Also, the IC50 with wild-type HIV-1NL4-3 (setting [4]) worked out at 5.9 ± 0.4 nM; in the series with HIVDRV^RP51 (setting [5]), 486 ± 52 nM; in the series with HIVDRV^RP30 (setting [6]) it was 11 ± 13 nM; in the series with HIVDRV^RP20 (setting [7]), 24 ± 9 nM. Further, the “fold change of IC50 relative to HIV-1NL4-3” value in the series with HIVDRV^RP51 was 82 fold; in the series with HIVDRV^RP30 it was 1.9 fold; with HIVDRV^RP20 it was 4 fold.

As for `COC(=O)N[C@H](C(=O)N[C@@H](Cc1ccccc1)[C@@H](O)CN(Cc1ccc(-c2ccccn2)cc1)NC(=O)[C@@H](NC(=O)OC)C(C)(C)C)C(C)(C)C` [ATV], the “fold-change of IC50 vs HIVNL4-3 WT” value in the series with HIVATV-5 μM (HIVATV-5 μM) was > 192 fold; in the series on HIVIDV-5 μM (HIVIDV-5 μM), 11 fold; in the series on HIVLPV-5 μM (HIVLPV-5 μM), 7 fold; in the series with HIVNFV-5 μM (HIVNFV-5 μM), 3.7 fold; in the series with HIVAPV-5 μM (HIVAPV-5 μM), 0.5 fold; in the series with HIVTPV-15 μM (HIVTPV-15 μM), > 192 fold. In the series with HIVSQV-5 μM (HIVSQV-5 μM), the “fold-change of IC50 vs HIVNL4-3 WT” value amounted to 105 fold. Further, the IC50 with HIVATV-5 μM (setting [3]) is > 1000 nM; in the series with wild-type HIV-1NL4-3 (setting [4]), 5.2 ± 0.3 nM; in the series with HIVDRV^RP51 (setting [5]), > 1000 nM; in the series with HIVIDV-5 μM (read-out: Mean IC50 ± SD, MT-4 cells, HIVIDV-5 μM, p24 assay), 59 ± 13 nM; in the series with HIVLPV-5 μM (read-out: Mean IC50 ± SD, MT-4 cells, HIVLPV-5 μM, p24 assay), 36 ± 9 nM; in the series with HIVNFV-5 μM (read-out: Mean IC50 ± SD, MT-4 cells, HIVNFV-5 μM, p24 assay), 19 ± 1 nM. The half-maximal inhibitory concentration (IC50) in the series on HIVAPV-5 μM (read-out: Mean IC50 ± SD, MT-4 cells, HIVAPV-5 μM, p24 assay) is 2.4 ± 0.7 nM; in the series with HIVDRV^RP30 (setting [6]), > 1000 nM; in the series on HIVDRV^RP20 (setting [7]) it was > 1000 nM; in the series with HIVTPV-15 μM (read-out: Mean IC50 ± SD, MT-4 cells, HIVTPV-15 μM, p24 assay) it was > 1000 nM; with HIVSQV-5 μM (read-out: Mean IC50 ± SD, MT-4 cells, HIVSQV-5 μM, p24 assay), 548 ± 177 nM. Besides, the “fold change of IC50 relative to HIV-1NL4-3” value in the series on HIVDRV^RP51, with HIVDRV^RP30 and in the series with HIVDRV^RP20 was > 192 fold in each case.
